Measured values: US8445503B2, “Inhibitors of polo-like kinase” (Elan Pharmaceuticals, Inc., priority 2009, dated 2013)
pIC50: −log10 of the molar value.

Tests used:
Type in all cases: biochemical
GST-PLK1 = GST-PLK1 (Homo sapiens, UniProt P53350); test: PLK TR-FRET peptide assay, PLK1; details: read-out: Plk1 IC50
GST-PLK2 = target: T1, GST-PLK2 (Homo sapiens, UniProt Q9NYY3); test: PLK TR-FRET peptide assay, PLK2; details: for pIC50: PLK TR-FRET peptide assay, GST-PLK2, read-out: Plk2 IC50
T1 construct: purchased CarnaBio
T1 sequence (Q9NYY3 whole entry): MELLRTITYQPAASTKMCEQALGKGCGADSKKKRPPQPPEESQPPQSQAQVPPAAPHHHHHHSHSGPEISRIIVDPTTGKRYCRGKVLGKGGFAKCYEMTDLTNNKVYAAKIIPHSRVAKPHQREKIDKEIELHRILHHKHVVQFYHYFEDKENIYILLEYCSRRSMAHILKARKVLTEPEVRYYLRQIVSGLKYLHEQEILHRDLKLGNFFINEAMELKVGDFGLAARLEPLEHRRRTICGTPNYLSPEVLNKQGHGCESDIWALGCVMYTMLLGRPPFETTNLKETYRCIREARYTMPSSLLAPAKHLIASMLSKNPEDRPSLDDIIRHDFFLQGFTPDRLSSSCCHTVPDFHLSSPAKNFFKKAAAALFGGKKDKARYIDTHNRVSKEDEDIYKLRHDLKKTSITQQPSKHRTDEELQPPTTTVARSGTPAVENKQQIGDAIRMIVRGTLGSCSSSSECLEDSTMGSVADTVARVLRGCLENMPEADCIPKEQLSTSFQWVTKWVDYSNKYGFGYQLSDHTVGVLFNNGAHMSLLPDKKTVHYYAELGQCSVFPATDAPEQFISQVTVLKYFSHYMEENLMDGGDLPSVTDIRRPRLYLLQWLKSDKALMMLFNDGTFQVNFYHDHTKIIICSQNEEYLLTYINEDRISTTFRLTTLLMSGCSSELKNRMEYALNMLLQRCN

GST-PLK3 = target: T2, GST-PLK3 (Homo sapiens, UniProt Q9H4B4); test: PLK TR-FRET peptide assay, PLK3; details: PLK TR-FRET peptide assay, GST-PLK3; read-out: Plk3 IC50
T2 construct: purchased CarnaBio
T2 sequence (Q9H4B4 whole entry): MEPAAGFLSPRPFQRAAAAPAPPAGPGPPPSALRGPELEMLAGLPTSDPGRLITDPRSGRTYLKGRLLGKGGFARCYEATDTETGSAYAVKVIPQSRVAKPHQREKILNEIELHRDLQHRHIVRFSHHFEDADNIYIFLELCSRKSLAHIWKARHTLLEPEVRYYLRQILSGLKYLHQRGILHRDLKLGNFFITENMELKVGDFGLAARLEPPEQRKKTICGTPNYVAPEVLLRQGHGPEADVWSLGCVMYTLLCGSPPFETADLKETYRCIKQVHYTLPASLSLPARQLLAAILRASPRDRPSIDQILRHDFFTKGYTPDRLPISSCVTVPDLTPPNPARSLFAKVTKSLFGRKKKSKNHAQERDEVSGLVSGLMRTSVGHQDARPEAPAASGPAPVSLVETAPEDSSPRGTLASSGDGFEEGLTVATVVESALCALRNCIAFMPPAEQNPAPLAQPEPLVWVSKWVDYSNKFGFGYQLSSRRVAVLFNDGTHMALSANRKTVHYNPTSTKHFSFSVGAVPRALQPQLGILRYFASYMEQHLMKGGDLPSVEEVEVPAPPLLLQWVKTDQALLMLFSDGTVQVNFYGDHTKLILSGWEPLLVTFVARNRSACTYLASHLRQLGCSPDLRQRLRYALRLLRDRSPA

Chain of GST-PLK1 (P53350 whole entry): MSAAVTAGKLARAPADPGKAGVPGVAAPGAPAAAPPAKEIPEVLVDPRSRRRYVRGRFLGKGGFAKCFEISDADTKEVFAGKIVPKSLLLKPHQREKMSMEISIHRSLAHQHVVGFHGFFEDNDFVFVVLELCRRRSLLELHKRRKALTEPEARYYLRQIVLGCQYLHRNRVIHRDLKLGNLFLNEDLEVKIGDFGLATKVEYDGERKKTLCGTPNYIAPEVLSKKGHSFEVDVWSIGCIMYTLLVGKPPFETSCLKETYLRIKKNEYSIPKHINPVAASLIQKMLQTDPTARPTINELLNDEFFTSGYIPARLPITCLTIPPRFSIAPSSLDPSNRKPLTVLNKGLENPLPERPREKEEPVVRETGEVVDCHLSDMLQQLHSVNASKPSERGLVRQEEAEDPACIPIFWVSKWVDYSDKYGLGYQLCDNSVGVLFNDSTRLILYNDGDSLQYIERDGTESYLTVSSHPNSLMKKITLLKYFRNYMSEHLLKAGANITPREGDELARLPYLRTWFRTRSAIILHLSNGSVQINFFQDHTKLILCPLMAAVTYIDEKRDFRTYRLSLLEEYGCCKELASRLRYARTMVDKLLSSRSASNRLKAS

| Compound | pIC50 (GST-PLK1) | pIC50 (GST-PLK2) | PLK2 activity relative to the opposite enantiomer / other isomer (GST-PLK2; comparison of resolved enantiomers, used to assign absolute configuration) | pIC50 (GST-PLK3) |
| --- | --- | --- | --- | --- |
| CC[C@@]12COCCN1c1nc(-c3cn[nH]c3-c3nccs3)ncc1N(C)C2=O [Example 344, (S)-6a-ethyl-5-methyl-2-(5-(thiazol-2-yl)-1H-pyrazol-4-yl)-6a,7,9,10-tetrahydro-[1,4]oxazino[3,4-h]pteridin-6(5H)-one] | < 4.30 | > 6.00 | more active compound | 4.30 to 5.00 |
| CC[C@]12COCCN1c1nc(-c3ccncc3-c3ccccc3)ncc1N(C)C2=O [Example 396, (R)-6a-ethyl-5-methyl-2-(3-phenylpyridin-4-yl)-6a,7,9,10-tetrahydro-[1,4]oxazino[3,4-h]pteridin-6(5H)-one] | < 4.30 | < 4.30 | – | < 4.30 |
| CC[C@]12COCCN1c1nc(-n3ccnc3-c3ccc(F)cn3)ncc1N(C)C2=O [Example 381, (R)-6a-ethyl-2-(2-(5-fluoropyridin-2-yl)-1H-imidazol-1-yl)-5-methyl-6a,7,9,10-tetrahydro-[1,4]oxazino[3,4-h]pteridin-6(5H)-one] | < 4.30 | < 4.30 | – | < 4.30 |
| CC[C@@H]1C(=O)N(C)c2cnc(-n3ccnc3)nc2N1C1CCOC1 (single isomer, unassigned) [Example 299] | 5.00 to 6.00 | > 6.00 | – | 4.30 to 5.00 |
| CC[C@@]12CCCN1c1nc(-n3ccnc3-c3cnccn3)ncc1N(C)C2=O [Example 144, (S)-6a-ethyl-5-methyl-2-(2-(pyrazin-2-yl)-1H-imidazol-1-yl)-6a,7,8,9-tetrahydropyrrolo[2,1-h]pteridin-6(5H)-one] | < 4.30 | 5.00 to 6.00 | – | < 4.30 |
| CCC1C(=O)N(C)c2cnc(-n3ccnc3)nc2N1c1cn[nH]c1 (stereo not shown) [Example 343, 7-ethyl-2-(1H-imidazol-1-yl)-5-methyl-8-(1H-pyrazol-4-yl)-7,8-dihydropteridin-6(5H)-one] | < 4.30 | 5.00 to 6.00 | – | < 4.30 |

Results, then the molecule that gave them:

| pIC50 (GST-PLK1) | pIC50 (GST-PLK2) | PLK2 activity relative to the opposite enantiomer / other isomer (GST-PLK2; comparison of resolved enantiomers, used to assign absolute configuration) | pIC50 (GST-PLK3) | Compound |
| --- | --- | --- | --- | --- |
| > 6.00 | 5.00 to 6.00 | – | 4.30 to 5.00 | CCOC(=O)c1cnn(-c2ncc3c(n2)N(C2CCCC2)[C@H](CC)C(=O)N3C)c1 [Example 18, (R)-ethyl 1-(8-cyclopentyl-7-ethyl-5-methyl-6-oxo-5,6,7,8-tetrahydropteridin-2-yl)-1H-pyrazole-4-carboxylate] |
| 5.00 to 6.00 | 5.00 to 6.00 | – | 5.00 to 6.00 | CC[C@@H]1C(=O)N(C)c2cnc(-n3ccc(C(=O)N(C)C)n3)nc2N1C1CCCC1 [Example 61, (R)-1-(8-cyclopentyl-7-ethyl-5-methyl-6-oxo-5,6,7,8-tetrahydropteridin-2-yl)-N,N-dimethyl-1H-pyrazole-3-carboxamide] |
| 4.30 to 5.00 | > 6.00 | – | < 4.30 | CC[C@@H]1C(=O)N(C)c2cnc(-c3cn(C)nc3-c3nccs3)nc2N1c1cnn(C)c1 [Example 417, (R)-7-ethyl-5-methyl-8-(1-methyl-1H-pyrazol-4-yl)-2-(1-methyl-3-(thiazol-2-yl)-1H-pyrazol-4-yl)-7,8-dihydropteridin-6(5H)-one] |
| > 6.00 | > 6.00 | – | 4.30 to 5.00 | CC[C@@H]1C(=O)N(C)c2cnc(-n3cnc(Br)c3)nc2N1C1CCCC1 [Example 43, (R)-2-(4-bromo-1H-imidazol-1-yl)-8-cyclopentyl-7-ethyl-5-methyl-7,8-dihydropteridin-6(5H)-one] |
| 5.00 to 6.00 | > 6.00 | – | 4.30 to 5.00 | CC[C@@H]1C(=O)N(C)c2cnc(-n3ccnc3-c3nccs3)nc2N1C1CCOC1 (stereo partly drawn) [Example 221, (7R)-7-ethyl-5-methyl-8-(tetrahydrofuran-3-yl)-2-(2-(thiazol-2-yl)-1H-imidazol-1-yl)-7,8-dihydropteridin-6(5H)-one] |
| 5.00 to 6.00 | > 6.00 | – | < 4.30 | CC[C@@H]1C(=O)N(C)c2cnc(-n3ccnc3-c3cnccn3)nc2N1C1CCOCC1 [Example 140, (R)-7-ethyl-5-methyl-2-(2-(pyrazin-2-yl)-1H-imidazol-1-yl)-8-(tetrahydro-2H-pyran-4-yl)-7,8-dihydropteridin-6(5H)-one] |
